Results: US9443060B2, “Method and system to provide personalized pharmaceutical compositions and dosages” (Volant Holdings GMBH, priority 2009, dated 2016)

Tests used:
[1] = tested on: hepatic glucose uptake (HGU); test: Glucose supply and insulin demand model: effect on hepatic glucose uptake; type: in vivo, human; settings: for HGU uptake: adjustment factor = increase in hepatic glucose uptake at the therapeutic dose of Table 1, T2D
Protocol: (§1) Therapeutic targets of the glucose supply (CE, 1+2; HGU, 3; GNG, 4; IR, 5) and insulin demand (PGU, 6; PIE, 7) model are presented in FIG. 1. To identify quantitative differences between antidiabetic agents on CE, HGU, GNG, IR, PGU, and PIE, multidatabase searches (Cochrane Central Register of Controlled Trials and Cochrane Register of Systematic Reviews, Embase, OVID Healthstar, OVID Journals, and PubMed) were conducted cross-referencing title and keywords for all selected antidiabetic therapies and their respective targets.
(§2) Alpha-glucosidase, biguanide, and thiazolidinedione (TZD) studies with long-term, pre-post design at maximal therapeutic doses were identified to simulate chronic administration. To maintain consistency with cardiovascular trials and accommodate known influences of hyperglycemia and hyperinsulinemia on the respective targets,^13-16 studies including patients with HbA1c in the range of 6-8% and body mass index (BMI)≧30 kg/m^2 were preferentially selected. In the event multiple studies were available to identify the effect of an agent on a therapeutic target, the mean percent change was used. Conversely, if there was evidence that an agent would elicit a response on a given target but no mathematical representation of the difference was provided, conservative estimates consistent with the scale of other agents and the degree of glucose regulation were instituted to best represent the expected effect. Individual agents were then characterized for the 24 h percent change from baseline for CE, HGU, GNG, IR, PGU, and PIE. Carbohydrate exposure was determined as the combined effect of caloric intake and intestinal carbohydrate absorption. Hepatic glucose uptake was defined as the reported value obtained immediately following oral glucose loading. Because GNG is known to be enhanced in the fasting state and persistent throughout the prandial phase,^17,18 effect was determined during the fasting state and considered equivalent throughout the prandial phase. For studies evaluating fasting glucose and insulin concentrations, an index of IR was determined by homeostasis model assessment of insulin resistance (HOM-AIR) using the following formula: Insulin (mU/liter)×Glucose (mmol)/22.5.^19 To account for known differences in secretory and uptake dynamics during the fasting and prandial phases, studies identifying the impact of therapies during the fasting state (or simulated hyperinsulinemic euglycemic clamp) and prandial phase (or oral glucose load insulin clamp) were specifically identified for changes in PGU (glucose infusion rate) and PIE (insulin concentrations) according to Equation (1): […]
(§3) For sulfonylurea and insulin-based therapies, insulin concentration time profiles were obtained and superimposed on the baseline 24 h insulin concentration time profile of T2D patients (FIG. 2) to calculate the increase in PIE (trapezoidal rule).^20 Calculated increases in incremental and cumulative insulin exposure were correlated to known insulin dose-response effects on HGU, GNG, and PGU (FIG. 3),^18,21 according to the equation y=mx+b. Twenty-four-hour increases in HGU, PGU, and PIE and decreases in GNG were compared to baseline values and percent change calculated.
(§4) With alpha-glucosidase, biguanide, TZD, secretagogue, and insulin therapies characterized for their respective impacts on CE, HGU, GNG, IR, PIE, and PGU, identification of their effect on the glucose supply (decrease in CE, increase in HGU, decrease in GNG, decrease in IR) and insulin demand (increase in PIE, increase in PGU) dynamic was assessed according to Equation (2), which provides the SD ratio according to the invention: […]

[2] = tested on: hepatic gluconeogenesis (GNG); parameters: endogenous glucose output: unit not given here; settings: cited from earlier work
insulin resistance (IR) = test: Glucose supply and insulin demand model: effect on insulin resistance; type: in vivo, human; settings: for IR reduction: adjustment factor = decrease in insulin resistance at the therapeutic dose of Table 1, T2D
Protocol: as §1, §2, §3, §4

[3] = tested on: peripheral insulin exposure (PIE); test: Glucose supply and insulin demand model: effect on peripheral insulin exposure; type: in vivo, human; parameters: PIE (24 h insulin exposure): unit not given here; settings: for PIE: adjustment factor = increase in peripheral insulin exposure at the therapeutic dose of Table 1, T2D
Protocol: as §1, §2, §3, §4
Twenty-four-hour steady state insulin concentration time curves were superimposed on the baseline secretion profile of the standard T2D patient.

[4] = tested on: peripheral glucose uptake (PGU); test: Glucose supply and insulin demand model: effect on peripheral glucose uptake; type: in vivo, human; settings: for PGU: adjustment factor = increase in peripheral glucose uptake at the therapeutic dose of Table 1, T2D
Protocol: as §1, §2, §3, §4

[5] = tested on: hepatic gluconeogenesis (GNG); test: Glucose supply and insulin demand model: effect on hepatic gluconeogenesis; type: in vivo, human; settings: for GNG inhibition: adjustment factor = decrease in hepatic gluconeogenesis at the therapeutic dose of Table 1, T2D
Protocol: as §1, §2, §3, §4

metabolic syndrome = test: FS index / neural net model of cardiovascular risk in metabolic syndrome patient populations; type: in vivo, human
Protocol: The FS index of MS comprises the following parameters: Fasting Blood Glucose, Fasting Insulin, HBA1c, BMI, AST, Triglycerides, Glucose Supply-Demand (S/D) index, and in certain cases, Proinsulin. Each parameter was mathematically arranged to increase as MS worsened, and weighted approximately equally in the prediction of MS progression and risk for CV events. […] FS index values were calculated from serial laboratory and clinical data over timeframes ranging between 2 and 10 years.
Neural Net Models and Data Display Methods. […] Unless otherwise stated, standard deviations (z-score) vs. time are presented in the individual and mean population graphics.
For purposes of analysis, clinical and laboratory parameters were converted into modified z-scores as follows: • A mean normal value (described as “mean” in the following) was selected based on review of literature and various published laboratory compendia. The Standard Deviation (SD) of each parameter was set to one half of the normal range. The modified z-score is calculated as follows: z=(Patient value−“mean”)/SD • On the graphs, the z-score is reported as the number of SD.
The FS index considered the following: Fasting Blood Glucose, Fasting Insulin, HBA1c, BMI, AST, Triglycerides, Glucose Supply-Demand (S/D) index, and in some cases Proinsulin. […] Each of these parameters was mathematically arranged to increase as Metabolic Syndrome worsened, and weighted approximately equally in the prediction of Metabolic Syndrome progression and risk for CV events.
The FS index was then applied to well-studied patient populations using a neural net model.
[formula] Where FBG is Fasting Blood Glucose in mg/dl and normal value is 100 mg/dl TG is Triglycerides in mg/dl normal value is <150 HBA1c is hemoglobin A1c in %, normal value is <6% BMI is body mass index as kg/m2 where a normal value is 20 and obese begins above 25 AST is Aspartate Transferase also called SGOT in IU/liter and a normal value is 5-50 FB insulin is fasting Blood insulin concentration in nmol/liter, a normal value is 4.0

[6] = tested on: carbohydrate exposure (CE); test: Glucose supply and insulin demand model: effect on carbohydrate exposure; type: in vivo, human; parameters: scale not given here; settings: for CE inhibition: adjustment factor = decrease in carbohydrate exposure at the therapeutic dose of Table 1, T2D
Protocol: as §1, §2, §3, §4

[7] = initiation of insulin in T2D patients; duration and intensity dependent; cited from earlier work
[8] = Insulin Glargine 1.0 U/Kg daily
[9] = Metformin 2000 mg, Glyburide 10 mg, Pioglitazone 45 mg, Insulin Glargine 0.5 U/kg daily, pH encapsulated glucose 3.0 grams/day
[10] = insulin glargine 0.5 U/kg, from insulin dose-response relationship

For OCCN1C[C@H](O)[C@@H](O)[C@H](O)[C@H]1CO [Miglitol], the HGU uptake [1] is listed as 0.15, the hepatic glucose output ([2]; Schnack, miglitol 300 mg/day, eight weeks, euglycemic clamp, poorly controlled T2D, placebo 0.35±0.17, not significant) is listed as 0.37±0.15 mg/kg^−1/min^−1 and the “change in hepatic glucose production” value ([2]; Sels, miglitol 200 mg at bedtime for 1 week, T2D) is listed as “not associated with a change in hepatic glucose production”. It also gave an IR reduction (insulin resistance (IR)) of 0.15, a PIE [3] of 0.05 and a PGU [4] of 0.25. It also gave a GNG inhibition [5] of 0.05.
In the case of N[C@@H](CC(=O)N1CCn2c(nnc2C(F)(F)F)C1)Cc1cc(F)c(F)cc1F [Sitagliptin], the “FS index response to treatment” value (metabolic syndrome; normal 20-50, 61 T2D on metformin, 100 RYGB, 18 Brake, 33 exenatide, 12 sitagliptin patients) is reported as “beneficial response to the diabetes component of metabolic syndrome” and the “other parameters of metabolic syndrome (BMI/weight, HBSD, lipids, NAFLD, blood pressure, insulin)” value (metabolic syndrome; same patient populations as FS index) is reported as “weight slowly increases or stays the same, lipid abnormalities do not resolve and NAFLD abnormalities do not resolve”.
With Insulin Glargine the “Score CE” value [6, 8] was 0.00, the “Score CE” value [6, 9] was 0.00 and the CE inhibition [6] was 0.00. For the same molecule, the “Score HGU” value [1, 8] was 0.48, the “Score HGU” value [1, 9] was 0.24 and the HGU uptake [1] was 0.24. For the same molecule, the “increase in HGU” value [1, 10] was 24%, the “Score IR” value (insulin resistance (IR); [8]) was 0.00 and the “Score IR” value (insulin resistance (IR); [9]) was 0.00. The IR reduction (insulin resistance (IR)) was 0.00, the “Score PIE” value [3, 8] was 0.60 and the “Score PIE” value [3, 9] was 0.30. The PIE [3] was 0.30, the “PIE (24 h insulin exposure)” value ([3]; insulin glargine 0.5 U/kg superimposed on standard T2D profile, baseline 5765) was 7495 and the “increase in PIE versus baseline” value ([3]; insulin glargine 0.5 U/kg, 24 h profile superimposed on standard T2D profile, trapezoidal rule) was 30%. For the same molecule, the “Score PGU” value [4, 8] was 0.84, the “Score PGU” value [4, 9] was 0.42 and the PGU [4] was 0.42. The “increase in PGU” value [4, 10] was 42%, the “Score HGI” value [5, 8] was 0.20 and the “Score HGI” value [5, 9] was 0.10. The GNG inhibition [5] was 0.10 and the “decrease in GNG” value [5, 10] was 10%.
Insulin Isophane gave a CE inhibition [6] of 0.00, an HGU uptake [1] of 0.23 and an IR reduction (insulin resistance (IR)) of 0.00. It also gave a PIE [3] of 0.28, a PGU [4] of 0.40 and a GNG inhibition [5] of 0.10.
Work on Insulin Lente yielded a CE inhibition [6] of 0.00, an HGU uptake [1] of 0.23 and an IR reduction (insulin resistance (IR)) of 0.00. It also gave a PIE [3] of 0.28, a PGU [4] of 0.40 and a GNG inhibition [5] of 0.10.
Molecule Insulin Lispro has a CE inhibition [6] of 0.00, an HGU uptake [1] of 0.23 and an IR reduction (insulin resistance (IR)) of 0.00. It also gave a PIE [3] of 0.42, a PGU [4] of 0.80 and a GNG inhibition [5] of 0.14.
With Insulin Lispro Protamine the CE inhibition [6] was 0.00, the HGU uptake [1] was 0.23 and the IR reduction (insulin resistance (IR)) was 0.00. For the same molecule, the PIE [3] was 0.28, the PGU [4] was 0.40 and the GNG inhibition [5] was 0.10.
Insulin Regular gave a CE inhibition [6] of 0.00, an HGU uptake [1] of 0.21 and an IR reduction (insulin resistance (IR)) of 0.00. For the same molecule, the PIE [3] was 0.33, the PGU [4] was 0.64 and the GNG inhibition [5] was 0.11.
In the case of Insulin Ultralente, the CE inhibition [6] is reported as 0.00, the HGU uptake [1] is reported as 0.17 and the IR reduction (insulin resistance (IR)) is reported as 0.00. It also gave a PIE [3] of 0.24, a PGU [4] of 0.38 and a GNG inhibition [5] of 0.08.
In the case of insulin, the weight gain [7] is given as 5-10%, the “plasma C5:^2H2O ratio” value ([2]; Gastaldelli, euglycemic hyperinsulinemic clamp, plasma insulin 113±6 μU/ml, T2D, basal 0.60±0.02) is given as 0.25±0.02 and the endogenous glucose output ([2]; Gastaldelli, euglycemic hyperinsulinemic clamp, plasma insulin 113±6 μU/ml, T2D, basal 15.2±0.4) is given as 7.1±0.9.
